Measurements reported in patent US20240190880A1 (THE REGENTS OF THE UNIVERSITY OF MICHIGAN, priority 2021, published 2024).

The molecules below were run against T1, ER (Homo sapiens, UniProt P03372) (assay: ER degradation activity, in-cell western blot analysis in T47D cells). Settings: 16 hours, Table A does not say which cell line (T47D or MCF7), read-out: Potency (DC50).
T1 construct: host or cells: T47D and MCF7 human breast cancer cells
T1 sequence (P03372 1-595): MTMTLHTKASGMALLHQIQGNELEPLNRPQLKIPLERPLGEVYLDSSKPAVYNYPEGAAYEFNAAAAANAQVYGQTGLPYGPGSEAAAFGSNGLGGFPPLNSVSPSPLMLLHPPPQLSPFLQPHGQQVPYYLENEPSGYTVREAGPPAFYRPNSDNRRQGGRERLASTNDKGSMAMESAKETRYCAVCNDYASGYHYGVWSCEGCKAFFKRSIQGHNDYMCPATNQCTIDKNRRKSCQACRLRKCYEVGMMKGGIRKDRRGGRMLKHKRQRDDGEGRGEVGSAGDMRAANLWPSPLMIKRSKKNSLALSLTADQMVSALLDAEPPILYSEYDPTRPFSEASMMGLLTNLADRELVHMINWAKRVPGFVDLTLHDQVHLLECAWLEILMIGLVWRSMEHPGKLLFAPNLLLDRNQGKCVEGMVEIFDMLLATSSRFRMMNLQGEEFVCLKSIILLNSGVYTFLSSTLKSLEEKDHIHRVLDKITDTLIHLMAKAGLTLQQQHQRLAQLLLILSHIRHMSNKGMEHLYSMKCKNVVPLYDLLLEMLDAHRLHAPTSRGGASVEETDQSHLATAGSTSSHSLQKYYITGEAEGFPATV
Type: cell-based
Outline: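 ER protein remaining after 16 h compound exposure is quantified in T47D cells by in-cell western, with a no-primary-antibody background control. Values are percentages of DMSO-treated signal.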
Work on `C[C@@H]1Cc2c([nH]c3ccccc23)[C@@H](c2c(F)cc(N3CC(C(=O)N4CCC(N5Cc6cc7c(cc6C5)C(=O)N(C5CCC(=O)NC5=O)C7=O)CC4)C3)cc2F)N1CC(F)F` (stereo partly drawn) [E 122, 6-(1-(1-(4-((1R,3R)-2-(2,2-difluoroethyl)-3-methyl-2,3,4,9-tetrahydro-1H-pyrido[3,4-b]indol-1-yl)-3,5-difluorophenyl)azetidine-3-carbonyl)piperidin-4-yl)-2-(2,6-dioxopiperidin-3-yl)-6,7-dihydropyrrolo[3,4-f]isoindole-1,3(2H,5H)-dione] yielded a DC50 of under 10 nM. In the case of `O=C1CCC(N2C(=O)c3cc4c(cc3C2=O)CN(C2CCC(NCC3CN(c5ccc([C@@H]6c7ccc(O)cc7CC[C@@H]6c6ccccc6)cc5)C3)CC2)C4)C(=O)N1` (stereo partly drawn) [E 339, 2-(2,6-dioxopiperidin-3-yl)-6-(4-(((1-(4-((1R,2S)-6-hydroxy-2-phenyl-1,2,3,4-tetrahydronaphthalen-1-yl)phenyl)azetidin-3-yl)methyl)amino)cyclohexyl)-6,7-dihydropyrrolo[3,4-f]isoindole-1,3(2H,5H)-dione], the DC50 is reported as over 100 nM. In the case of `O=C1CCC(N2C(=O)c3cc4c(cc3C2=O)CCN(CC(=O)N2CCC3(CC2)CCN(c2ccc([C@@H]5c6ccc(O)cc6CC[C@@H]5c5ccccc5)cc2)CC3)CC4)C(=O)N1` (stereo partly drawn) [E 166, 2-(2,6-dioxopiperidin-3-yl)-7-(2-(9-(4-((1R,2S)-6-hydroxy-2-phenyl-1,2,3,4-tetrahydronaphthalen-1-yl)phenyl)-3,9-diazaspiro[5.5]undecan-3-yl)-2-oxoethyl)-6,7,8,9-tetrahydroazepino[4,5-f]isoindole-1,3(2H,5H)-dione], the DC50 is reported as over 100 nM.
